{"source": "paper PMC6149898", "about": "“GPCR Modulation of Thieno[2,3-b]pyridine Anti-Proliferative Agents” (Molecules : A Journal of Synthetic Chemistry and Natural …, 2017)", "key": {"BR:MDA-MB-231": {"test_system": "BR:MDA-MB-231", "set-up": "method as in earlier work", "details": "NCI-60 panel; ref [4],[5],[6],[7]; cited from earlier work"}, "BR:BT-549": {"test_system": "BR:BT-549", "set-up": "method as in earlier work", "details": "NCI-60 panel; ref [4],[5],[6],[7]; cited from earlier work"}, "BR:T-47D": {"test_system": "BR:T-47D", "set-up": "method as in earlier work", "details": "NCI-60 panel; ref [4],[5],[6],[7]; cited from earlier work"}, "CNS:SF-295": {"test_system": "CNS:SF-295", "set-up": "method as in earlier work", "details": "NCI-60 panel; ref [4],[5],[6],[7]; cited from earlier work"}, "CO:HT29": {"test_system": "CO:HT29", "set-up": "method as in earlier work", "details": "NCI-60 panel; ref [4],[5],[6],[7]; cited from earlier work"}, "ME:SK-MEL-28": {"test_system": "ME:SK-MEL-28", "set-up": "method as in earlier work", "details": "NCI-60 panel; ref [4],[5],[6],[7]; cited from earlier work"}, "ME:UACC-62": {"test_system": "ME:UACC-62", "set-up": "method as in earlier work", "details": "NCI-60 panel; ref [4],[5],[6],[7]; cited from earlier work"}, "OV:IGROV1": {"test_system": "OV:IGROV1", "set-up": "method as in earlier work", "details": "NCI-60 panel; ref [4],[5],[6],[7]; cited from earlier work"}, "OV:OVCAR-4": {"test_system": "OV:OVCAR-4", "set-up": "method as in earlier work", "details": "NCI-60 panel; ref [4],[5],[6],[7]; cited from earlier work"}, "OV:OVCAR-5": {"test_system": "OV:OVCAR-5", "set-up": "method as in earlier work", "details": "NCI-60 panel; ref [4],[5],[6],[7]; cited from earlier work"}, "OV:NCI/ADR-RES": {"test_system": "OV:NCI/ADR-RES", "set-up": "method as in earlier work", "details": "NCI-60 panel; ref [4],[5],[6],[7]; cited from earlier work"}, "RE:SN12C": {"test_system": "RE:SN12C", "set-up": "method as in earlier work", "details": "NCI-60 panel; ref [4],[5],[6],[7]; cited from earlier work"}, "C3AR1": {"biological_target": "C3AR1 (Homo sapiens, UniProt Q16581)", "test": "gpcrMAX PathHunter beta-arrestin"}, "C5AR1": {"biological_target": "C5AR1 (Homo sapiens, UniProt P21730)", "test": "gpcrMAX PathHunter beta-arrestin"}, "CALCRL-RAMP2": {"biological_target": "CALCRL-RAMP2 (Homo sapiens, UniProt O60895+Q16602)", "sequence (Q16602 23-461)": "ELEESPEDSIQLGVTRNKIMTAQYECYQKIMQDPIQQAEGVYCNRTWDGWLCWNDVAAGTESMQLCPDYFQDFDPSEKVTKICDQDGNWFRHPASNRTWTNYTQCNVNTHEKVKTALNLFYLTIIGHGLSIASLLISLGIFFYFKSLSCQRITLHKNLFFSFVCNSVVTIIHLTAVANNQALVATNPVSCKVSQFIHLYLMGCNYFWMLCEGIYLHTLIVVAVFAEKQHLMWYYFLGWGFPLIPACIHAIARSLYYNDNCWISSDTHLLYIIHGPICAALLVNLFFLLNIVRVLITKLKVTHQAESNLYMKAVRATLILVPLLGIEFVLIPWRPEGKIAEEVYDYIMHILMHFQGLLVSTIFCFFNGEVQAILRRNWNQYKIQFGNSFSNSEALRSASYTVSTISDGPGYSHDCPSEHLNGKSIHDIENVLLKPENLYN", "sequence (O60895 43-175 partner)": "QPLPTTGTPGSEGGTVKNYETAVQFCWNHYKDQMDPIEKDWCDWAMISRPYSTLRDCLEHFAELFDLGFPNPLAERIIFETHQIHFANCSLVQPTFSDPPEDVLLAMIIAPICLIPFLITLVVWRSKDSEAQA", "test": "gpcrMAX PathHunter beta-arrestin"}, "CALCR-RAMP3": {"biological_target": "CALCR-RAMP3 (Homo sapiens, UniProt O60896+P30988)", "sequence (P30988 25-474)": "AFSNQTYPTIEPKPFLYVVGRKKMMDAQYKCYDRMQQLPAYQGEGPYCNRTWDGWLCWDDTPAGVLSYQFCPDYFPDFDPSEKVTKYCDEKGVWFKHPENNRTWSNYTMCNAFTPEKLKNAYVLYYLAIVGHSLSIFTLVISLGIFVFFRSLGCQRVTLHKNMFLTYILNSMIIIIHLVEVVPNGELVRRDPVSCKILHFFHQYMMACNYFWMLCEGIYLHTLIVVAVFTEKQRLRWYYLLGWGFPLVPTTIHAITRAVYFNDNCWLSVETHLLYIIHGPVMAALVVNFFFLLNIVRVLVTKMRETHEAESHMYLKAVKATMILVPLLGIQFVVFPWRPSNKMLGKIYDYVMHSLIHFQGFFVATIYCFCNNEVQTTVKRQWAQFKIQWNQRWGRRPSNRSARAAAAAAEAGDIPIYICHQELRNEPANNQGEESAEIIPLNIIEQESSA", "sequence (O60896 24-148 partner)": "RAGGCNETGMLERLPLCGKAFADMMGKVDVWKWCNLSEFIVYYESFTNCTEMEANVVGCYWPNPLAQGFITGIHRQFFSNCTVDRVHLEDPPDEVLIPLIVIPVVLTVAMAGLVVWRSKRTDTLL", "test": "gpcrMAX PathHunter beta-arrestin"}, "CCR10": {"biological_target": "CCR10 (Homo sapiens, UniProt P46092)", "test": "gpcrMAX PathHunter beta-arrestin"}, "CCR8": {"biological_target": "CCR8 (Homo sapiens, UniProt P51685)", "test": "gpcrMAX PathHunter beta-arrestin"}, "CHRM1": {"biological_target": "CHRM1 (Homo sapiens, UniProt P11229)", "test": "gpcrMAX PathHunter beta-arrestin"}, "CMKLR1": {"biological_target": "CMKLR1 (Homo sapiens, UniProt Q99788)", "sequence (Q99788 whole entry)": "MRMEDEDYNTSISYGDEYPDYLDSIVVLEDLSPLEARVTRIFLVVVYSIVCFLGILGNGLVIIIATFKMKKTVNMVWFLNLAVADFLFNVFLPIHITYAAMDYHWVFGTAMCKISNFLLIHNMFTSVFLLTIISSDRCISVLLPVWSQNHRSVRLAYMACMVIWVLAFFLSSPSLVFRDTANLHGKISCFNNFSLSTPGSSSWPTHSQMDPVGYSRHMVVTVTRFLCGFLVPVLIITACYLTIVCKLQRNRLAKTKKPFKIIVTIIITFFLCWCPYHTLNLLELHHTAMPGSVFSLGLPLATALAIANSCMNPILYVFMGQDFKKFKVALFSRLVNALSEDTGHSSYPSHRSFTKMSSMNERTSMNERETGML", "test": "gpcrMAX PathHunter beta-arrestin"}, "CRHR1": {"biological_target": "CRHR1 (Homo sapiens, UniProt P34998)", "test": "gpcrMAX PathHunter beta-arrestin"}, "CX3CR1": {"biological_target": "CX3CR1 (Homo sapiens, UniProt P49238)", "sequence (P49238 whole entry)": "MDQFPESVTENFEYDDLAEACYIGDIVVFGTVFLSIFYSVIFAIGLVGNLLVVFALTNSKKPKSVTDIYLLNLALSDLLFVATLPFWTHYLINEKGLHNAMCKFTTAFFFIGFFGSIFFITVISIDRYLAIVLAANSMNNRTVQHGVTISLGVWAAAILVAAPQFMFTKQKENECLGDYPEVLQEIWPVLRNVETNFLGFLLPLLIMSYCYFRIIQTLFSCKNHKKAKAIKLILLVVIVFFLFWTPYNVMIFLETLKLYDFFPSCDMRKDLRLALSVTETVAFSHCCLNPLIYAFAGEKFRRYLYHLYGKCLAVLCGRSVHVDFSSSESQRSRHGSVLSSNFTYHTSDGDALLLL", "test": "gpcrMAX PathHunter beta-arrestin"}, "CXCR5": {"biological_target": "CXCR5 (Homo sapiens, UniProt P32302)", "test": "gpcrMAX PathHunter beta-arrestin"}, "DRD2L": {"biological_target": "DRD2L (Homo sapiens, UniProt P14416)", "test": "gpcrMAX PathHunter beta-arrestin"}, "DRD3": {"biological_target": "DRD3 (Homo sapiens, UniProt P35462)", "sequence (P35462 whole entry)": "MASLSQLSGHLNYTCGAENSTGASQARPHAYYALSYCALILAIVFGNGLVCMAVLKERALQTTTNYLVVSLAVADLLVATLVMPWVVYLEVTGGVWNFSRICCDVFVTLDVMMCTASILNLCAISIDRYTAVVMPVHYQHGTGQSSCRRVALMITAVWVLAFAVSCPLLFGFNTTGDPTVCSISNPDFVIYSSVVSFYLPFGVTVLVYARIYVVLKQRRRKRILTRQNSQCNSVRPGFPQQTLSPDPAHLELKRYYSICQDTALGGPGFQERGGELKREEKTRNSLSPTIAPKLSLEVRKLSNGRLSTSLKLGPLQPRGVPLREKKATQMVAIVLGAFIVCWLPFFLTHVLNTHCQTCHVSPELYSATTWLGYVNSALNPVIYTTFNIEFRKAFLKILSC", "test": "gpcrMAX PathHunter beta-arrestin"}, "GLP1R": {"biological_target": "GLP1R (Homo sapiens, UniProt P43220)", "sequence (P43220 24-463)": "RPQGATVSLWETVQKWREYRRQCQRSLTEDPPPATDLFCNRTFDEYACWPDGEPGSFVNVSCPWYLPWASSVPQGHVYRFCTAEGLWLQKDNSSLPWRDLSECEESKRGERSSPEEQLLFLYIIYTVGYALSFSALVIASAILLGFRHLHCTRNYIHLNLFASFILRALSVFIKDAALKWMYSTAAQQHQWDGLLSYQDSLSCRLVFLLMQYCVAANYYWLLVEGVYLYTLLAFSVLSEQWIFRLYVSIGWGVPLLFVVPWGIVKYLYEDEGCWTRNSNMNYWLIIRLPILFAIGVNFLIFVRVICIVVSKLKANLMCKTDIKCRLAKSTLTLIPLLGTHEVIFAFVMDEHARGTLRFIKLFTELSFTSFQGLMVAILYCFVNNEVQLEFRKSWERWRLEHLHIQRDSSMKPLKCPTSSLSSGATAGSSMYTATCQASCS", "test": "gpcrMAX PathHunter beta-arrestin"}, "GPR109A": {"biological_target": "GPR109A (Homo sapiens, UniProt Q8TDS4)", "test": "gpcrMAX PathHunter beta-arrestin"}, "HCRTR1": {"biological_target": "HCRTR1 (Homo sapiens, UniProt O43613)", "test": "gpcrMAX PathHunter beta-arrestin"}, "HCRTR2": {"biological_target": "HCRTR2 (Homo sapiens, UniProt O43614)", "sequence (O43614 whole entry)": "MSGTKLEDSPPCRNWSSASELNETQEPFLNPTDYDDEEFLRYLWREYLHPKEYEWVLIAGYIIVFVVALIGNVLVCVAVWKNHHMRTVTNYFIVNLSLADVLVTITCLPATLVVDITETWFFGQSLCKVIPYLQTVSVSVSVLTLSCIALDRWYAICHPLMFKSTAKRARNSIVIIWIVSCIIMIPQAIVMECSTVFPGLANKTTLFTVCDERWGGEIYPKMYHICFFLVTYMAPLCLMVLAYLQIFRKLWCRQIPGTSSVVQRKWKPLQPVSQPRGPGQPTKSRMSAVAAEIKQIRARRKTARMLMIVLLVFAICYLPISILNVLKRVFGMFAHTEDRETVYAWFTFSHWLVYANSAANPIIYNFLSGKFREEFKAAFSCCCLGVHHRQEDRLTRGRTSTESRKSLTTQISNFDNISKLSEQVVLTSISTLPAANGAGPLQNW", "test": "gpcrMAX PathHunter beta-arrestin"}, "HRH4": {"biological_target": "HRH4 (Homo sapiens, UniProt Q9H3N8)", "test": "gpcrMAX PathHunter beta-arrestin"}, "HTR1E": {"biological_target": "HTR1E (Homo sapiens, UniProt P28566)", "test": "gpcrMAX PathHunter beta-arrestin"}, "HTR2C": {"biological_target": "HTR2C (Homo sapiens, UniProt P28335)", "test": "gpcrMAX PathHunter beta-arrestin"}, "MC1R": {"biological_target": "MC1R (Homo sapiens, UniProt Q01726)", "test": "gpcrMAX PathHunter beta-arrestin"}, "MLNR": {"biological_target": "MLNR (Homo sapiens, UniProt O43193)", "test": "gpcrMAX PathHunter beta-arrestin"}, "OXER1": {"biological_target": "OXER1 (Homo sapiens, UniProt Q8TDS5)", "sequence (Q8TDS5 whole entry)": "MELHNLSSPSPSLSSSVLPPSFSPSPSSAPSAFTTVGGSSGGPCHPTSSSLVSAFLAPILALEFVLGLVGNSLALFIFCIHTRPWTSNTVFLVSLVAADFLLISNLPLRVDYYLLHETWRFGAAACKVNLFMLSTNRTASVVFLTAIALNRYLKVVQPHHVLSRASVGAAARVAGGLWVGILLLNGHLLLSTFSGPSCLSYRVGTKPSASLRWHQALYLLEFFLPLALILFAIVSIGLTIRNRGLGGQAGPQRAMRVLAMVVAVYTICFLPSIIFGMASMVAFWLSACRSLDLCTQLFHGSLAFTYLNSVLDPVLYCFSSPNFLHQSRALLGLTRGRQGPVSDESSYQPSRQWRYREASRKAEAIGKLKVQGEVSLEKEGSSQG", "test": "gpcrMAX PathHunter beta-arrestin"}, "P2RY1": {"biological_target": "P2RY1 (Homo sapiens, UniProt P47900)", "test": "gpcrMAX PathHunter beta-arrestin"}, "PROKR2": {"biological_target": "PROKR2 (Homo sapiens, UniProt Q8NFJ6)", "sequence (Q8NFJ6 whole entry)": "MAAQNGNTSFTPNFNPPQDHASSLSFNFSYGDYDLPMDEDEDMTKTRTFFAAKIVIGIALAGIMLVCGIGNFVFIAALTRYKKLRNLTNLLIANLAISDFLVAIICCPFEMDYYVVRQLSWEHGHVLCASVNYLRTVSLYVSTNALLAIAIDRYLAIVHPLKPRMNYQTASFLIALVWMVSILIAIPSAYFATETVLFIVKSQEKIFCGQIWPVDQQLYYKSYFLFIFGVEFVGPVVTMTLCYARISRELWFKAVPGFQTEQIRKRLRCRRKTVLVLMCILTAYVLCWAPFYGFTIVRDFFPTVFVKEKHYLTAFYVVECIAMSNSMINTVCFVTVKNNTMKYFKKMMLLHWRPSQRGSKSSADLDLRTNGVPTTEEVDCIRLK", "test": "gpcrMAX PathHunter beta-arrestin"}, "PTGFR": {"biological_target": "PTGFR (Homo sapiens, UniProt P43088)", "sequence (P43088 whole entry)": "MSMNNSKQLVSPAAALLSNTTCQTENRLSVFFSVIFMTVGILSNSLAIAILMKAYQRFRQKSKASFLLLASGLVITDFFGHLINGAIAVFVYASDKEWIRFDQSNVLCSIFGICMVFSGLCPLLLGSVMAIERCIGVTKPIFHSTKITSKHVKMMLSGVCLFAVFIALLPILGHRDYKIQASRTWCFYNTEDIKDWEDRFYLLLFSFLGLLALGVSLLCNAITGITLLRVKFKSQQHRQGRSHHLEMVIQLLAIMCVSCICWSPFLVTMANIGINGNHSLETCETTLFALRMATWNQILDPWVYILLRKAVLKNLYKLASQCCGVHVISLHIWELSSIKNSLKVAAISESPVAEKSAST", "test": "gpcrMAX PathHunter beta-arrestin"}, "SSTR3": {"biological_target": "SSTR3 (Homo sapiens, UniProt P32745)", "test": "gpcrMAX PathHunter beta-arrestin"}, "SSTR5": {"biological_target": "SSTR5 (Homo sapiens, UniProt P35346)", "test": "gpcrMAX PathHunter beta-arrestin"}, "VIPR2": {"biological_target": "VIPR2 (Homo sapiens, UniProt P41587)", "sequence (P41587 24-438)": "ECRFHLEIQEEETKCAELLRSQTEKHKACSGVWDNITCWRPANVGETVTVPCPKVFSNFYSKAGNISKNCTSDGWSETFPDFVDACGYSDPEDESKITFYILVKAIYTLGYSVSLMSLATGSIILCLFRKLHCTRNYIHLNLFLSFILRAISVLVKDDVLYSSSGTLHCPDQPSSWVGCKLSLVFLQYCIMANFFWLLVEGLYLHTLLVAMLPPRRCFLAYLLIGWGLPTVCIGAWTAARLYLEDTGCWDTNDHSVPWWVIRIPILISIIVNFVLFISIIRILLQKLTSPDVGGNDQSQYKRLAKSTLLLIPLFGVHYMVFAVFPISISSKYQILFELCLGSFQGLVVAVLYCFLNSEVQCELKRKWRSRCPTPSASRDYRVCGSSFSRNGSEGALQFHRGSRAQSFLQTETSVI", "test": "gpcrMAX PathHunter beta-arrestin"}}}
{"smiles": "Cc1c(Cl)cccc1NC(=O)c1sc2nc3c(cc2c1N)C(=O)CCC3", "note": "[Compound 1]", "values": [{"measurement": "GI50", "setting": "BR:MDA-MB-231", "value": 141, "unit": "nM"}, {"measurement": "GI50", "setting": "BR:BT-549", "value": 321, "unit": "nM"}, {"measurement": "GI50", "setting": "BR:T-47D", "value": 55, "unit": "nM"}, {"measurement": "GI50", "setting": "CNS:SF-295", "value": 36.5, "unit": "nM"}, {"measurement": "GI50", "setting": "CO:HT29", "value": 49, "unit": "nM"}, {"measurement": "GI50", "setting": "ME:SK-MEL-28", "value": 224, "unit": "nM"}, {"measurement": "GI50", "setting": "ME:UACC-62", "value": 50.3, "unit": "nM"}, {"measurement": "GI50", "setting": "OV:IGROV1", "value": 196, "unit": "nM"}, {"measurement": "GI50", "setting": "OV:OVCAR-4", "value": 604, "unit": "nM"}, {"measurement": "GI50", "setting": "OV:OVCAR-5", "value": 308, "unit": "nM"}, {"measurement": "GI50", "setting": "OV:NCI/ADR-RES", "value": 46.3, "unit": "nM"}, {"measurement": "GI50", "setting": "RE:SN12C", "value": 142, "unit": "nM"}, {"measurement": "inhibition at 10 µM", "setting": "C3AR1", "value": -3, "unit": "%"}, {"measurement": "inhibition at 10 µM", "setting": "C5AR1", "value": 2, "unit": "%"}, {"measurement": "inhibition at 10 µM", "setting": "CALCRL-RAMP2", "value": -23, "unit": "%"}, {"measurement": "inhibition at 10 µM", "setting": "CALCR-RAMP3", "value": 17, "unit": "%"}, {"measurement": "inhibition at 10 µM", "setting": "CCR10", "value": -49, "unit": "%"}, {"measurement": "inhibition at 10 µM", "setting": "CCR8", "value": -7, "unit": "%"}, {"measurement": "inhibition at 10 µM", "setting": "CHRM1", "value": 0, "unit": "%"}, {"measurement": "inhibition at 10 µM", "setting": "CMKLR1", "value": 14, "unit": "%"}, {"measurement": "inhibition at 10 µM", "setting": "CRHR1", "value": 20, "unit": "%"}, {"measurement": "inhibition at 10 µM", "setting": "CX3CR1", "value": 11, "unit": "%"}, {"measurement": "inhibition at 10 µM", "setting": "CXCR5", "value": 0, "unit": "%"}, {"measurement": "inhibition at 10 µM", "setting": "DRD2L", "value": -1, "unit": "%"}, {"measurement": "inhibition at 10 µM", "setting": "DRD3", "value": 20, "unit": "%"}, {"measurement": "inhibition at 10 µM", "setting": "GLP1R", "value": -1, "unit": "%"}, {"measurement": "inhibition at 10 µM", "setting": "GPR109A", "value": -13, "unit": "%"}, {"measurement": "inhibition at 10 µM", "setting": "HCRTR1", "value": 13, "unit": "%"}, {"measurement": "inhibition at 10 µM", "setting": "HCRTR2", "value": 8, "unit": "%"}, {"measurement": "inhibition at 10 µM", "setting": "HRH4", "value": 32, "unit": "%"}, {"measurement": "inhibition at 10 µM", "setting": "HTR1E", "value": 19, "unit": "%"}, {"measurement": "inhibition at 10 µM", "setting": "HTR2C", "value": -4, "unit": "%"}, {"measurement": "inhibition at 10 µM", "setting": "MC1R", "value": -16, "unit": "%"}, {"measurement": "inhibition at 10 µM", "setting": "MLNR", "value": -18, "unit": "%"}, {"measurement": "inhibition at 10 µM", "setting": "OXER1", "value": -1, "unit": "%"}, {"measurement": "inhibition at 10 µM", "setting": "P2RY1", "value": 24, "unit": "%"}, {"measurement": "inhibition at 10 µM", "setting": "PROKR2", "value": -3, "unit": "%"}, {"measurement": "inhibition at 10 µM", "setting": "PTGFR", "value": -13, "unit": "%"}, {"measurement": "inhibition at 10 µM", "setting": "SSTR3", "value": 5, "unit": "%"}, {"measurement": "inhibition at 10 µM", "setting": "SSTR5", "value": -3, "unit": "%"}, {"measurement": "inhibition at 10 µM", "setting": "VIPR2", "value": 12, "unit": "%"}]}
